Assay results taken from patent publication US8119624B2, “Fused phenyl amido heterocyclic compounds” (Pfizer Inc., priority 2006, dated 2012).
Where two headings read alike, the source gives them in different places.

Molecular target: T1, Full-length glucokinase (beta cell isoform) (Homo sapiens, UniProt P35557)
T1 construct: Full-length glucokinase (beta cell isoform) was His-tagged at N-terminus; His tag (N); made in house
T1 sequence (P35557 1-465): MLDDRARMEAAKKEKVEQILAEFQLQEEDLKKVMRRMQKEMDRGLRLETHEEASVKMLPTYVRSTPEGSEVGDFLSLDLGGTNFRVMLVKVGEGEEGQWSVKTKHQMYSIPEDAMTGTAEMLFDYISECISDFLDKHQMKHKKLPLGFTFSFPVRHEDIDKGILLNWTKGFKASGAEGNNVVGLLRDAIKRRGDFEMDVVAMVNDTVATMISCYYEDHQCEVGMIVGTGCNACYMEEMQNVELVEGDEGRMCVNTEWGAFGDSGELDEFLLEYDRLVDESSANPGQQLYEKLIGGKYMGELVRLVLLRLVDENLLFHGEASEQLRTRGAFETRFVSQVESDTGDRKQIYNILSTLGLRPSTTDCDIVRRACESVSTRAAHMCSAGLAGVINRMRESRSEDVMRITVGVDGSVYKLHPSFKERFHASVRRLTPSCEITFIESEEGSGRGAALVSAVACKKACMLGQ
Assay: Glucokinase biochemical assay (PK/LDH-coupled, NADH depletion at 340 nm): % activation, EC50, % max activation
Conditions: 5 mM glucose; for activation at 10 µM: read-out: % Activation at 10 uM; for EC50: read-out: EC50; for Emax: read-out: % Max Activation
Method: Full-length glucokinase (beta cell isoform) was His-tagged at N-terminus and purified by a Ni column followed by size exclusion chromatography. Glucose was obtained from Calbiochem, and other reagents were from Sigma.
All assays were performed in a Corning 96-well plate using Spectramax PLUS spectrophotometer (Molecular Devices) at room temperature. The final assay volume was 100 uL. The buffer conditions used in this assay were as follows: 50 mM HEPES, 5 mM glucose, 1 mM ATP, 2 mM MgCl2, 0.7mM NADH, 2 mM DTT, 1 Unit/mL PK/LDH, 0.2 mM phosphoenolpyruvate, 25 mM KCl. Tested compound in DMSO solution was added to the buffer and mixed well by a plate shaker for 1 minute. The final concentration of DMSO introduced into the assay was 1%.
Glucokinase was added to the buffer mixture to initiate the reaction in the presence and absence of compound. Reaction was monitored by absorbance at 340nm due to the depletion of NADH. The initial reaction velocity was measured by the slope of a linear time course of 200-900 sec.
The percentage of activation was calculated by the following equation: % Activation=(Va/Vo−1)×100;
wherein each of Va and Vo is defined as the initial reaction velocity in the presence and absence of the tested compound, respectively.
The GK activities were measured as a function of compound concentrations.

[1] = 10 uM compound, % Activation=(Va/Vo−1)×100

Structure (SMILES) | activation at 10 µM [1] [%] | EC50 (GK activation) [nM] | Emax (fitted maximum activation) [%] | EC50 (1 mM ATP, room temperature) [nM] | activation at 10 µM (compound at 10 uM, 1 mM ATP, room temperature) [%] | % Activation at 10 uM [1] [%] | % Max Activation (fitted maximum activation) [%]
Cc1ncsc1CCOc1cc(C(=O)Nc2ccn(C)n2)cc2c1CC(C)(C)O2 [Example 99, 2,2-Dimethyl-4-[2-(4-methyl-thiazol-5-yl)-ethoxy]-2,3-dihydro-benzofuran-6-carboxylic acid (1-methyl-1H-pyrazol-3-yl)-amide] | 112 | 4300 | 136 | – | – | – | –
Cc1ccc(NC(=O)c2cc(Oc3ccc(S(C)(=O)=O)cc3)c3c(c2)C(=O)N(CC(C)C)CC3)nc1 [Example 391, 2-Isobutyl-N-(5-methylpyridin-2-yl)-5-(4-(methylsulfonyl)-phenoxy)-1-oxo-1,2,3,4-tetrahydroisoquinoline-7-carboxamide] | – | – | – | > 10000 | 45.2 | – | –
Cc1csc2cc(C(=O)Nc3ccn(C)n3)cc(Oc3ccc(S(C)(=O)=O)cc3)c12 [Example 351, 3-Methyl-N-(1-methyl-1H-pyrazol-3-yl)-4-[4-(methylsulfonyl)-phenoxy]-1-benzothiophene-6-carboxamide] | 0.9 | – | – | – | – | – | –
Cc1ccc(NC(=O)c2cc(OC(C)C)cc3oc(C(C)C)cc23)nc1 [Example 348, 6-Isopropoxy-2-isopropyl-N-(5-methylpyridin-2-yl)benzofuran-4-carboxamide] | 16.6 | – | – | – | – | – | –
Cc1ccc(NC(=O)c2cc(Oc3ccc(S(C)(=O)=O)cc3)c3ocnc3c2)nc1 [Example 367, N-(5-methylpyridin-2-yl)-7-[4-(methylsulfonyl)phenoxy]-1,3-benzoxazole-5-carboxamide] | 47 | 5800 | 59 | – | – | – | –
Cc1ccc(NC(=O)c2cc(Oc3ccc(C(=O)N(C)C)nc3)c3c(c2)OC(C)(C)C3)nc1 [Example 165, 5-[2,2-Dimethyl-6-(5-methyl-pyridin-2-ylcarbamoyl)-2,3-dihydro-benzofuran-4-yloxy]-pyridine-2-carboxylic acid dimethylamide] | 76.8 | 38 | 57 | – | – | – | –
Cn1ccc(NC(=O)c2cc(Oc3ccc(C(=O)NCCO)c(F)c3)c3c(c2)OC(C)(C)C3)n1 [Example 72, 4-[3-Fluoro-4-(2-hydroxy-ethylcarbamoyl)-phenoxy]-2,2-dimethyl-2,3-dihydro-benzofuran-6-carboxylic acid(1-methyl-1H-pyrazol-3-yl)-amide] | 182 | 950 | 161 | – | – | – | –
COCC1Cc2c(Oc3ccc(C(=O)N4CCC4)cc3)cc(C(=O)Nc3ccn(C)n3)cc2O1 (single isomer, unassigned; (-)) [Example 209, (−)-4-[4-(Azetidine-1-carbonyl)-phenoxy]-2-methoxymethyl-2,3-dihydro-benzofuran-6-carboxylic acid (1-methyl-1H-pyrazol-3-yl)-amide] | – | 380 | – | – | – | 87 | 96
Cc1ccc(NC(=O)c2cc(Oc3ccc(S(C)(=O)=O)cc3)c3oc(C)cc3c2)nc1 [Example 337, 2-Methyl-N-(5-methylpyridin-2-yl)-7-[4-(methylsulfonyl)-phenoxy]-1-benzofuran-5-carboxamide] | 42.6 | 3000 | 89 | – | – | – | –
Cc1ccc(NC(=O)c2cc(Oc3ccc(C(=O)N(C)C)cc3)c3oc(C)nc3c2)nc1 [Example 370, 7-{4-[(Dimethylamino)carbonyl]phenoxy}-2-methyl-N-(5-methylpyridin-2-yl)-1,3-benzoxazole-5-carboxamide] | 14.9 | 170 | 3.5 | – | – | – | –
C[C@@H](Cc1ccccc1)Oc1cc(C(=O)Nc2ccn(C)n2)cc2c1CC(C)(C)O2 [Example 78, 2,2-Dimethyl-4-((S)-1-methyl-2-phenyl-ethoxy)-2,3-dihydro-benzofuran-6-carboxylic acid (1-methyl-1H-pyrazol-3-yl)-amide] | 139 | 1470 | 149 | – | – | – | –
CNC(=O)c1ccc(Oc2cc(C(=O)Nc3ccn(C)n3)cc3c2CC(C)(C)O3)cc1F [Example 69, 4-(3-Fluoro-4-methylcarbamoyl-phenoxy)-2,2-dimethyl-2,3-dihydro-benzofuran-6-carboxylic acid(1-methyl-1H-pyrazol-3-yl)-amide] | 122 | 370 | 129 | – | – | – | –
Cn1ccc(NC(=O)c2cc(Oc3ccc(C(=O)N4CC(O)C4)cc3F)c3c(c2)OC(C)(C)C3)n1 [Example 45, 4-[2-Fluoro-4-(3-hydroxy-azetidine-1-carbonyl)-phenoxy]-2,2-dimethyl-2,3-dihydro-benzofuran-6-carboxylic acid(1-methyl-1H-pyrazol-3-yl)-amide] | 150 | 570 | 146 | – | – | – | –
Cc1ccc(NC(=O)c2cc(Oc3ccc(S(=O)(=O)N(C)C)cc3)c3c(c2)OC(C)(C)C3)nc1 [Example 128, 4-(4-Dimethylsulfamoyl-phenoxy)-2,2-dimethyl-2,3-dihydro-benzofuran-6-carboxylic acid (5-methyl-pyridin-2-yl)-amide] | 135 | 38 | 112 | – | – | – | –
Cn1ccc(NC(=O)c2cc(OCC(=O)c3ccc(CO)cc3)c3c(c2)OC(C)(C)C3)n1 [Example 97, 4-[2-(4-Hydroxymethyl-phenyl)-2-oxo-ethoxy]-2,2-dimethyl-2,3-dihydro-benzofuran-6-carboxylic acid (1-methyl-1H-pyrazol-3-yl)-amide] | 131 | 3400 | 123 | – | – | – | –
COCC1Cc2c(Oc3ccc(S(C)(=O)=O)cc3)cc(C(=O)Nc3ccn(C)n3)cc2O1 (stereo not shown) [Example 201, 4-(4-Methanesulfonyl-phenoxy)-2-methoxymethyl-2,3-dihydro-benzofuran-6-carboxylic acid (1-methyl-1H-pyrazol-3-yl)-amide] | 107 | 2800 | 137 | – | – | – | –
COCC1(C)Cc2c(Oc3ccc(C(=O)N(C)C)c(F)c3)cc(C(=O)Nc3ccn(C)n3)cc2O1 (stereo not shown) [Example 234, 4-(4-Dimethylcarbamoyl-3-fluoro-phenoxy)-2-methoxymethyl-2-methyl-2,3-dihydro-benzofuran-6-carboxylic acid (1-methyl-1H-pyrazol-3-yl)-amide] | 121 | 75 | 112 | – | – | – | –
Cc1ccc(NC(=O)c2cc(Oc3ccc(S(C)(=O)=O)cc3)c3sccc3c2)nc1 [Example 363, 7-(4-Methanesulfonyl-phenoxy)-benzo[b]thiophene-5-carboxylic acid(5-methyl-pyridin-2-yl)-amide] | 52.3 | 7650 | 99 | – | – | – | –
Cc1cc2c(Oc3ccc(S(=O)(=O)N4CCC4)cc3)cc(C(=O)Nc3cnc(N(C)C)cn3)cc2o1 [Example 299, 4-(4-(Azetidin-1-ylsulfonyl)phenoxy)-N-(5-(dimethylamino)-pyrazin-2-yl)-2-methylbenzofuran-6-carboxamide] | 106 | 180 | 107 | – | – | – | –
COCc1cc2c(Oc3ccc(S(C)(=O)=O)cc3)cc(C(=O)Nc3cc(OC)ccn3)cc2o1 [Example 314, 2-(Methoxymethyl)-N-(4-methoxypyridin-2-yl)-4-[4-(methylsulfonyl)phenoxy]-1-benzofuran-6-carboxamide] | 47.3 | 330 | 46 | – | – | – | –
CN(C)S(=O)(=O)c1ccc(Oc2cc(C(=O)Nc3cnn(C)n3)cc3c2CC(C)(C)O3)cc1 [Example 134, 4-(4-Dimethylsulfamoyl-phenoxy)-2,2-dimethyl-2,3-dihydro-benzofuran-6-carboxylic acid (2-methyl-2H-[1,2,3]triazol-4-yl)-amide] | 300 | 190 | 271 | – | – | – | –
CCNC(=O)c1ccc(Oc2cc(C(=O)Nc3ccn(C)n3)cc3c2CC(C)(C)O3)cn1 [Example 168, 5-[2,2-Dimethyl-6-(1-methyl-1H-pyrazol-3-ylcarbamoyl)-2,3-dihydro-benzofuran-4-yloxy]-pyridine-2-carboxylic acid ethylamide] | 172 | 199 | 184 | – | – | – | –
